# From patent US5641480A, “Hair care compositions comprising heteroatom containing alkyl aldonamide compounds” (Lever Brothers Company, Division of Conopco, Inc., priority 1994, dated 1997)
# What was measured:
# [1] = Area per molecule at the water/air interface (Example 95); assay type: physicochemical; details: 60 °C
# Text: The area per molecule of a surfactant at the water/air interface provides information on the degree of packing and the orientation of the adsorbed surfactant molecule. While not wishing to be bound by theory, it is believed that surfactants that have small area per molecule values tend to pack more closely at the interface than those with large area per molecule values. From the surface excess concentration at surface saturation (Γmax), the area per molecule (am) of C8 /C10 oxypropyl D-gluconamide was determined and is given by:
# am =1×10^16 /Nav Γmax
# [2] = Surface tension at the water/air interface (Example 91); assay type: physicochemical; details: 60 °C
# Method: An important characteristic feature that surfactants have is the tendency for them to absorb at the water/air interface in an oriented manner, thereby altering the interfacial free energy of that surface. The surface free energy per unit area or surface tension (γ), is a measure of this work and may be considered as the minimum amount of work required to bring sufficient surfactant molecules to the surface.
# The surface tension (γ) value of C8 /C10 oxypropyl D-gluconamide was determined and is set forth below: […]
# zein = system: zein
# Text: The zein solubilization assay was developed to determine the biological effects of surfactants on the skin. The protein is normally in soluble in water, but can be brought into solution by interaction with surfactants. The extent of zein dissolved is related to the irritation potential (M. J. Schwinger, Kolloid-Z. Z. Poly., 233, 848, 1969). The greater the zein solubilization, the greater the irritation potential of that surfactant on the skin.
# Thus, a 1% solution of surfactant (30 mls) was added to 1.5 g of zein and stirred at room temperature for 1 hour. Residual zein was collected and dried to constant weight. Differences between starting and residual weights were used to calculate % zein solubilized.
# [3] = Effectiveness in reducing surface tension (Example 93); assay type: physicochemical; details: 60 °C
# Text: As mentioned before, surface tension reduction depends on the replacement of water molecules at the interface by surfactant molecules, therefore the effectiveness of a surfactant in reducing interfacial surface tension should reflect the saturated concentration of surfactant at the interface relative to that in bulk liquid phase. During this process the surface tension of water steadily decreases as bulk phase surfactant concentration increases. This will continue until the concentration reaches the critical micelle concentration (CMC), above which the surface tension remains nearly unchanged and the interface is saturated with surfactant. The surface tension at the CMC is therefore very close to the minimum interfacial tension or maximum surface pressure that the system can achieve. The surface pressure at this point, IIcmc, is a suitable measure of the effectiveness of a surfactant in reducing surface tension and is given as:
# .PI.cmc 20+2.3nRT(Γmax) log [CMC/C20 ]
# n=1 which represents the number of ions whose surface concentration changes with the change in liquid phase suffactant concentration.
# CMC/C20 =is the ratio of the critical micelle concentration to the bulk phase surfactant concentration necessary to reduce the surface tension of water by 20 dyn/cm.
# [4] = Ross-Miles foam height assay of aldonamides (Examples 81-84); assay type: physicochemical; details: 0.1% aldonamide, 40° C. (if not soluble, about 5°-10° C. above Krafft point), 0 ppm hardness
# Method: In the Ross-Miles method, 200 mL of a suffactant solution contained in a pipette of specified dimensions with a 2.9 -mm-i.d. orifice is allowed to fall 90 cm onto 50 mL of the same solution contained in a cylindrical vessel maintained at a given temperature by means of a water jacket. The height of the foam produced in the cylindrical vessel is read immediately after all the solution has run out of the pipette and then again after a given amount of time.
# Using this method, the foam production (initial foam height in mm) and foam stability (final foam height after 10 minutes in mm) were measured at 0.1% aldonamtde concentration, 40° C. and 0 ppm (parts per million) hardness.
# [5] = Viscosity of prototype shampoo compositions of Example 86, Brookfield Digital Viscometer; assay type: physicochemical; details: 4.0% thickener
# Text: The results are as follows:
# [6] = Clarity of prototype shampoo compositions with sodium lauryl sulfate (Example 87); assay type: physicochemical; details: room temperature, 6 months
# Method: (§1) The prototype shampoo composition is as follows:
# (§2) The above formulations were prepared by admixing the above ingredients in listed order and heating the mixture to about 80° C. with rapid stirring. The mixture was then cooled to about 40° C., placed in a clear jar and stored at room temperature for 6 months.
# [7] = Micellar shape and structure, packing parameter (Example 96); details: T=333.15° K.
# Text: A theory of miceIlar structure, based upon the geometry of various micelle shapes and the space occupied by the surfactant has been disclosed by J. N. Israelachvili, D. J. Mitchell and B. W. Ninham in the J. Chem. Soc. Faraday Trans. 2, 1525, 72, (1976) which is given as the packing parameter (p).
# VT =V(CH3) +(nc -1)V(CH2) and represents the volume occupied by the hydrophobic groups in the miceliar core at a given temperature.
# 1c= 1.50+1.26 nc Å and represents the length of the hydrophobic group in the core.
# am =area per molecule or the cross-sectional area occupied by the hydrophilic group at the interface.
# nc =total number of carbons in the alkyl chain.
# [8] = Viscosity of prototype shampoo compositions with sodium lauryl sulfate, Brookfield Digital Viscometer (Example 88); assay type: physicochemical; details: vs no thickener
# Method: as §1, §2
# It is well known that the viscosity of a liquid composition comprising of anionic surfactant can be modified by the addition of inorganic salts, such as sodium chloride. However, in the absence of an organic modifier, high levels of salt may be necessary to achieve the required viscosity which may lead to problems of storage at cold temperature or even salting out certain ingredients. In practice, however, the viscosity of a liquid composition is modified by the simultaneous addition of thickener and small amounts of inorganic salt (viscosity cobuilder). The combined effect is greater than either one alone. The viscosity of the above prototype shampoo composition comprising various amounts of heteroatom containing alkyl aldonamide compound is as follows: […]
substance,measurement,setting,value
C8 /C10 oxypropyl D-gluconamide,am (area per molecule),[1],43.1 Å^2
same,γ (surface tension),[2],29.2 dyn/cm
same,% Zein Solubilized,zein,6%
same,.PI.cmc (surface pressure),[3],38.5 dyn/cm
same,Foam Height Initial,[4],212 mm
same,Foam Height Final,[4]; after 10 minutes,165 mm
same,increased the viscosity of that composition,[5]; Example 86 shampoo (2395/22),109 times
same,Viscosity,"[5]; Example 86 shampoo, 22° C.",2395 Centipoise
same,Appearance (Time),[6]; 3.0% thickener in […] sodium lauryl sulfate shampoo,Clear
same,Appearance (Time),[6]; 4.0% thickener in […] sodium lauryl sulfate shampoo,Clear
same,Appearance (Time),[6]; 5.0% thickener in […] sodium lauryl sulfate shampoo,Clear
same,p (packing parameter),[7],0.503
same,Increase (viscosity),[8]; 1.0% thickener,13 ×
same,Increase (viscosity),[8]; 2.0% thickener,27 ×
same,Increase (viscosity),[8]; 3.0% thickener,80 ×
same,Increase (viscosity),[8]; 4.0% thickener,148 ×
same,Increase (viscosity),[8]; 5.0% thickener,860 ×
